Measurements: patent publication US11419878B2, “Medicine obtained by combining FXR agonist and ARB” (Intercept Pharmaceuticals, Inc., priority 2016, dated 2022)

Assays:
[1] = test system: Otsuka Long-Evans Tokushima Fatty (OLETF) rats administered porcine serum (PS); assay: Rat NASH model (OLETF rats given porcine serum), Sirius Red histology of hepatic fibrosis; format: in vivo; settings: obeticholic acid 30 mg/kg/day and/or losartan 30 mg/kg/day oral; for fibrosis index (FI) as fraction of the level in the positive control group: PS 8 weeks, p<0.01; for progression of hepatic fibrosis (micrographs of Sirius Red-stained liver sections): PS i.p. twice weekly 8 weeks
Protocol: As a rat NASH model, Otsuka Long-Evans Tokushima. Fatty (OLETF) rats, which are known as a model for naturally-occurring type II diabetes with obesity, were administered porcine serum (PS) in order to experimentally induce liver fibrosis, and the therapeutic effects of distilled water (vehicle administration group), obeticholic acid (an FXR agonist) and losartan (an ARB) (administration groups, combined administration group) were investigated according to the following method.
Male OLETF rats (n=40) and Long-Evans Tokushima Otsuka (LETO) rats=10; non-diabetic negative control group)
Obeticholic acid (obtained from Intercept Pharmaceuticals, Inc. via Sumitomo Dainippon Pharma Co., Ltd.) was used as an FXR agonist, and commercial losartan (potassium salt of losartan; referred to in this working example simply as “losartan”) was used as an ARB.
Obeticholic acid (30 mg/kg/day) and/or losartan (30 mg/kg/day) was/were given by forced oral administration; the administration period was 8 weeks in all cases.
12-week-old OLETF rats were randomly divided into 4 groups (G2, G3, G4, G5) (n=10 for each group) and given intraperitoneal administrations of 1.0 ml/kg of porcine serum (PS) twice weekly for 8 weeks. 12-week-old LETO rats (n=10) were taken as group G1 and administered PS in the same manner. On the same day on which PS administration was begun, the group G3 and G4 rats were respectively administered obeticholic acid (30 mg/kg/day) and losartan (30 mg/kg/day) daily for 8 weeks by forced continuous oral administration. The group G5 rats were given daily combined administration of obeticholic acid (30 mg/kg/day) and losartan (30 mg/kg/day) for 8 weeks in the same manner. The rats in the G1 group (LETO) and G2 group (OLETF) were administered distilled water as a vehicle instead of the drugs and taken as the negative and positive control group respectively (with the same administration method as in the drug groups).
In order to evaluate the progression of hepatic fibrosis, formalin-fixed paraffin-embedded liver sections (5 μm in width) were taken from rats that had completed the above testing and stained with Sirius Red. Micrographs of the stained sections were taken and collected (in all of the rats, microscopic images were collected with a total of 10 fields per sample), and the micrographs of the various groups were compared. In order to quantitate the progression of fibrosis in the various groups, a semiquantitative analysis of the histological characteristics of the images of the stained specimens collected was conducted using ImageJ software from the NIH (National Institutes of Health).

[2] = test system: C57Bl/6J mice fed a CDAHFD; assay: Murine NASH model (CDAHFD-fed mice), serum ALT activity; format: in vivo, mouse; settings: obeticholic acid 10 mg/kg/day and/or losartan 30 mg/kg/day oral, 3 weeks from 6 weeks of diet
Text: According to the NASH/NAFLD Practice Guideline of 2015 (Japan Society of Hepatology, NASH/NAFLD Practice Guideline 2015. Tokyo: Bunkodo; 2015.), the important factors in NASH diagnostic screening are an abdominal ultrasound diagnosis of fatty liver and abnormal ALT (alanine aminotransferase) values. The diagnosis of NASH is confirmed by liver biopsy, with control of obesity/hypertension/lipid abnormalities being one of the basic criteria, and continuing high values for transaminases (aminotransferases) are also significant. […] Aliment Pharmacol Ther. 2013 Jul. 38 (2): 134-43). Based on the above findings, as ALT is considered an important prognostic factor in the progression of NASH, treatment to improve ALT levels is expected to alleviate the pathology of NASH. For this reason, evaluation was conducted using the animal model of reduction of ALT below, and the effects of monotherapy and combined administration of an FXR agonist (obeticholic acid) and an ARB (losartan) were studied.
The same method was used as in working example 7.
Male C57Bl/6J mice (n=50) […]
In order to evaluate serum alanine aminotransferase (ALT) activity, blood samples were taken from mice that had completed the above-mentioned testing, and the serum was separated. Using a pharmaceutical product for in vitro diagnosis, ALT activity in the serum samples was enzymatically measured.

[3] = target: T1, FXR (Homo sapiens, UniProt Q96RI1); settings: background statement; cited from earlier work
T1 sequence (Q96RI1 1-486): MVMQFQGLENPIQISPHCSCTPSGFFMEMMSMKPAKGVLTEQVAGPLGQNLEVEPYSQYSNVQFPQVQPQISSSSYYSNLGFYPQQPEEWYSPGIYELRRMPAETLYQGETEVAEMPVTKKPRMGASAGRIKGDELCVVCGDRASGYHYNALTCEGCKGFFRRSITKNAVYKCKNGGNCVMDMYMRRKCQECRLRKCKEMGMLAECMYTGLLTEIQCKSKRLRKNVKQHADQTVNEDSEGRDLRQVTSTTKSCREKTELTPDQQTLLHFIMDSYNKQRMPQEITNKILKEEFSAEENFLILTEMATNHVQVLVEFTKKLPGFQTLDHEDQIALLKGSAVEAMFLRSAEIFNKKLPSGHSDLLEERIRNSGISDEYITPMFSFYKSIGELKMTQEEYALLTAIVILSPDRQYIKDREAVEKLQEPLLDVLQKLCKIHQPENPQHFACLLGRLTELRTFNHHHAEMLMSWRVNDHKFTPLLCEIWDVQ

Row | Compound | fibrosis index (FI) as fraction of the level in the positive control group [1] | progression of hepatic fibrosis (micrographs of Sirius Red-stained liver sections) [1] | improvement in serum ALT activity versus the positive control group [2] | FXR agonist action / FXR-stimulating action [3]
1 | CCCCc1nc(Cl)c(CO)n1Cc1ccc(-c2ccccc2-c2nn[nH]n2)cc1 [losartan] | 7/10 | moderately inhibited | only an improving trend | –
2 | CC[C@H]1[C@@H](O)[C@@H]2[C@H](CC[C@]3(C)[C@@H]([C@H](C)CCC(=O)O)CC[C@@H]23)[C@@]2(C)CC[C@@H](O)C[C@@H]12 [obeticholic acid, 3α,7α-dihydroxy-6α-ethyl-5β-cholan-24-oic acid] | approximately 6/10 | moderately inhibited | only an improving trend | strongest FXR-stimulating action among the semi synthetic alkylated bile acids
